Source: the supplement of paper PMC10307832

Legend:
Experiment in all cases: relative viability (nuclei count vs DMSO), 5 days (fraction); higher = more cells survive
Decitabine + Olaparib = compound: Nc1ncn([C@H]2C[C@H](O)[C@@H](CO)O2)c(=O)n1 [Decitabine] + O=C(c1cc(Cc2n[nH]c(=O)c3ccccc23)ccc1F)N1CCN(C(=O)C2CC2)CC1 [Olaparib] (partner 8 µM)
In short: (§1)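 For relative viability, nuclei counts in treated wells were divided by those in vehicle wells. Lung cancer cell lines had been pin-tool dosed in 1536-well plates the day after seeding and cultured for 5 days, then fixed and stained in one step (final 0.05% Triton X-100, 1% formaldehyde, 1 ug/ml Hoechst) and imaged at 4×. Doses were one drug alone or a fixed anchor-drug dose plus five library-drug doses (not always all listed) in √10 steps, and values are duplicate-plate medians.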

Decitabine + Linsitinib = compound: Nc1ncn([C@H]2C[C@H](O)[C@@H](CO)O2)c(=O)n1 [Decitabine] + C[C@]1(O)C[C@@H](c2nc(-c3ccc4ccc(-c5ccccc5)nc4c3)c3c(N)nccn32)C1 [Linsitinib] (partner 1 µM)
In short: as §1

[1] = compound: O=C(C[C@H]1NCCC[C@@H]1O)Cn1cnc2cc(Br)c(Cl)cc2c1=O (racemic) [Halofuginone] + CC(=O)Nc1cccc(-n2c(=O)n(C3CC3)c(=O)c3c(Nc4ccc(I)cc4F)n(C)c(=O)c(C)c32)c1 [Trametinib] (partner 0.02 µM)
In short: as §1

Cediranib + Linsitinib = compound: COc1cc2c(Oc3ccc4[nH]c(C)cc4c3F)ncnc2cc1OCCCN1CCCC1 [Cediranib] + C[C@]1(O)C[C@@H](c2nc(-c3ccc4ccc(-c5ccccc5)nc4c3)c3c(N)nccn32)C1 [Linsitinib] (partner 1 µM)
In short: as §1

Cell Line | relative viability (Decitabine + Olaparib; first compound 0.04 µM) | relative viability (Decitabine + Olaparib; first compound 0.1265 µM) | relative viability (Decitabine + Olaparib; first compound 0.4 µM) | relative viability (Decitabine + Olaparib; first compound 1.265 µM) | relative viability (Decitabine + Olaparib; first compound 4 µM) | relative viability (Decitabine + Linsitinib; first compound 0.04 µM) | relative viability (Decitabine + Linsitinib; first compound 0.1265 µM) | relative viability (Decitabine + Linsitinib; first compound 0.4 µM) | relative viability (Decitabine + Linsitinib; first compound 1.265 µM) | relative viability (Decitabine + Linsitinib; first compound 4 µM) | relative viability ([1]; first compound 0.001 µM) | relative viability ([1]; first compound 0.003162 µM) | relative viability ([1]; first compound 0.01 µM) | relative viability ([1]; first compound 0.03162 µM) | relative viability ([1]; first compound 0.1 µM) | relative viability (Cediranib + Linsitinib; first compound 0.04 µM) | relative viability (Cediranib + Linsitinib; first compound 0.1265 µM) | relative viability (Cediranib + Linsitinib; first compound 0.4 µM) | relative viability (Cediranib + Linsitinib; first compound 1.265 µM) | relative viability (Cediranib + Linsitinib; first compound 4 µM)
HCC-78 | 0.458 | 0.433 | 0.382 | 0.272 | 0.241 | 0.538 | 0.545 | 0.407 | 0.371 | 0.319 | 0.775 | 0.718 | 0.709 | 0.766 | 0.503 | 0.664 | 0.625 | 0.478 | 0.487 | 0.502
HCC-366 | 0.11 | 0.0915 | 0.066 | 0.0346 | 0.0247 | 0.535 | 0.743 | 0.339 | 0.14 | 0.111 | 0.395 | 0.404 | 0.338 | 0.322 | 0.166 | 0.65 | 0.634 | 0.582 | 0.542 | 1.05
HCC-827 | 0.146 | 0.279 | 0.218 | 0.182 | 0.205 |  | 0.501 | 0.396 | 0.324 | 0.93 | 0.591 | 0.524 | 0.515 | 0.575 | 0.433 | 1.02 |  | 0.945 | 0.949 | 0.991
HOP-62 | 0.108 | 0.141 | 0.0882 | 0.0978 | 0.132 | 0.617 | 0.307 | 0.159 | 0.138 | 1.05 | 0.419 | 0.407 | 0.383 | 0.411 | 0.235 | 1.11 |  | 1.04 | 0.853 | 1.18
IA-LM | 0.288 | 0.197 | 0.139 | 0.129 | 0.129 | 0.281 | 0.461 | 0.174 | 0.155 | 0.129 |  |  |  |  |  | 0.629 | 0.772 | 0.586 | 0.436 | 0.634
LC-2-ad | 0.441 | 0.402 | 0.397 | 0.343 | 0.274 | 0.732 | 0.746 | 0.51 | 0.497 | 0.378 | 0.897 | 0.988 | 0.936 | 0.917 | 0.701 | 0.871 | 0.831 | 0.842 | 0.771 | 0.806
LCLC-97TM1 | 0.0932 | 0.124 | 0.0895 | 0.0603 | 0.335 | 0.183 | 0.199 | 0.166 | 0.116 | 0.213 | 0.241 | 0.192 | 0.187 | 0.185 | 0.173 | 0.192 |  | 0.175 | 0.144 | 0.28
LCLC-103H | 0.688 | 0.69 | 0.498 | 0.491 | 0.742 | 1.06 | 1.13 | 1.12 | 0.882 | 0.888 | 0.659 | 0.682 | 0.666 | 0.661 | 0.658 | 1.19 | 1.12 | 1.04 | 1.02 | 1.18
